From patent publication US11999794B2, “Human mesothelin chimeric antigen receptors and uses thereof” (Novartis AG, priority 2013, dated 2024)
Entries after “also recorded” stand apart in the source; their conditions may differ. Like-named read-outs stand apart in the source and are kept apart here. Marks after values point to notes of the source that are not given here.

Key:
[1] = tested on: A/H1N1 strain A/New Jersey/8/76 and A/H3N2 strain A/Victoria/361/11; design: species or system human; details: in vivo
[2] = cited from earlier work
B/Brisbane/60/2008 = test: Hemagglutination inhibition titers and seroconversion; assay type: in vivo, human; details: for Percent of subjects with seroconversion to influenza 4 weeks after vaccination: B; for GMT ratio, B: GMT at week 4 post vaccination/GMT at baseline
Procedure: (§1) The trial was observer-blind because the placebo in the RAD001 0.5 mg daily and 20 mg weekly cohorts differed slightly from the RAD001 tablets in those cohorts. […] The treatment duration for all cohorts was 6 weeks during which time subjects underwent safety evaluations in the clinic every 2 weeks. After subjects had been dosed for 4 weeks, RAD001 steady state levels were measured pre-dose and at one hour post dose. After completing the 6 week course of study drug, subjects were given a 2 week drug free break to reverse any possible RAD001-induced immunosuppression, and then were given a 2012 seasonal influenza vaccination (Agrippal®, Novartis Vaccines and Diagnostics, Siena, Italy) containing the strains H1N1 A/California/07/2009, H3N2 A/Victoria/210/2009, B/Brisbane/60/2008. Four weeks after influenza vaccination, subjects had serum collected for influenza titer measurements. Antibody titers to the 3 influenza vaccine strains as well as to 2 heterologous strains (A/H1N1 strain A/New Jersey/8/76 and A/H3N2 strain A/Victoria/361/11) were measured by standard hemagglutination inhibition assay (Kendal, A P et al. (1982) Concepts and procedures for laboratory-based influenza surveillance. Atlanta: Centers for Disease Control and Prevention B17-B35). Levels of IgG and IgM specific for the A/H1N1/California/07/2009 were measured in serum samples taken before and 4 weeks after influenza vaccination as described previously (Spensieri, F. et al. (2013) Proc. Natl. Acad. Sci. USA 110:14330-14335). Results were expressed as fluorescence intensity.
The ability of RAD001 to improve immune function in elderly volunteers was evaluated by measuring the serologic response to the 2012 seasonal influenza vaccine. The hemagglutination inhibition (HI) geometric mean titers (GMT) to each of the 3 influenza vaccine strains at baseline and 4 weeks after influenza vaccination are provided in Table 10. The primary analysis variable was the HI GMT ratio (4 weeks post vaccination/baseline). […] This endpoint was chosen because a 1.2-fold increase in the influenza GMT ratio induced by the MF-59 vaccine adjuvant was associated with a decrease in influenza illness (Iob, A et al. (2005) Epidemiol Infect 133:687-693).
Rates of seroconversion 4 weeks after influenza vaccination were also evaluated. Seroconversion was defined as the change from a negative pre-vaccination titer (i.e., HI titer <1:10) to post-vaccination HI titer ≥1:40 or at least 4-fold increase from a non-negative (≥1:10) pre-vaccination HI titer.

PD-1 = test: Immunophenotyping of PBMC (FACS); assay type: in vivo, human; details: for decrease in PD-1 positive CD4 T cells compared to placebo / decrease in PD-1 positive CD8 T cells compared to placebo: adjusted for baseline
[3] = tested on: A/H3N2 strain A/Victoria/361/11; test: HI titers and seroconversion, heterologous strain; assay type: in vivo, human; details: for Percentage of subjects who seroconvert to heterologous strain A/H3N2 A/Victoria/361/11: 4 weeks after seasonal influenza vaccination, odds ratio vs placebo p < 0.05
[4] = tested on: A/H1N1/California/07/2009; test: Anti-influenza IgG and IgM levels in serum; assay type: in vivo, human; details: vs placebo cohorts
Procedure: as §1, with “After completing the 6 week course of study drug, subjects were given a 2 week drug free break to reverse any possible RAD001-induced immunosuppression, and then were given a 2012 seasonal influenza vaccination (Agrippal®, Novartis Vaccines and Diagnostics, Siena, Italy) containing the strains H1N1 A/California/07/2009, H3N2 A/Victoria/210/2009, B/Brisbane/60/2008. Four weeks after influenza vaccination, subjects had serum collected for influenza titer measurements.” left out

[5] = RAD001 levels in blood (trough)
[6] = tested on: H1N1 A/California/07/2009, H3N2 A/Victoria/210/2009, B/Brisbane/60/2008; test: Serologic response to 2012 seasonal influenza vaccine (HI GMT ratio, primary endpoint); assay type: in vivo, human; details: for primary endpoint (≥1.2-fold GMT increase relative to placebo in 2 of 3 strains): ITT population
Procedure: From December 2011 to April 2012, 218 elderly volunteers were enrolled in a randomized, observer-blind, placebo-controlled trial. The subjects were randomized to treatment arms using a validated automated randomization system with a ratio of RAD001 to placebo of 5:2 in each treatment arm. The treatment arms were: • RAD001 0.5 mg daily or placebo • RAD001 5 mg weekly or placebo • RAD001 20 mg weekly or placebo
as §1
The primary analysis of geometric mean titer ratios was done using a normal Bayesian regression model with non-informative priors. This model was fitted to each antibody titer on the log scale. The primary outcome in each model was the Day 84 measurement. The Day 63 measurement was included in the outcome vector. The model fitted using SAS 9.2 proc mixed with the prior statement. The covariance structure of the matrix was considered as unstructured (option type=UN). A flat prior was used. For the secondary analysis of seroconversion rates, logistic regression was used.
The ability of RAD001 to improve immune function in elderly volunteers was evaluated by measuring the serologic response to the 2012 seasonal influenza vaccine. […]

CO[C@H]1C[C@@H]2CC[C@@H](C)[C@@](O)(O2)C(=O)C(=O)N2CCCC[C@H]2C(=O)O[C@H]([C@H](C)C[C@@H]2CC[C@@H](OCCO)[C@H](OC)C2)CC(=O)[C@H](C)/C=C(\C)[C@@H](O)[C@@H](OC)C(=O)[C@H](C)C[C@H](C)/C=C/C=C/C=C/1C [RAD001, (1R,9S,12S,15R,16E,18R,19R,21R,23 S,24E,26E,28E,30S,32S,35R)-1,18-dihydroxy-12-{(1R)-2-[(1 S,3R,4R)-4-(2-hydroxyethoxy)-3-methoxycyclohexyl]-1-methylethyl}-19,30-dimethoxy-15,17,21,23,29,35-hexamethyl-11,36-dioxa-4-aza-tricyclo[30.3.1.04,9]hexatriaconta-16,24,26,28-tetraene-2,3,10,14,20-pentaone]
increase in HI GMT ratios for the heterologous strains [1]: higher in the RAD001 as compared to placebo cohorts | seroconversion rates for the heterologous strains [1]: higher in the RAD001 as compared to placebo cohorts | trough level ([2]; 10 mg daily oncology dosing regimen): approximately 20 ng/ml | trough level ([2]; 0.75-1.5 mg bid transplant dosing regimen): approximately 3 ng/ml | Percent of subjects with seroconversion to influenza 4 weeks after vaccination (B/Brisbane/60/2008; Intention to Treat Population, 0.5 mg, N = 48): 27% | Percent of subjects with seroconversion to influenza 4 weeks after vaccination (B/Brisbane/60/2008; Intention to Treat Population, 5 mg, N = 49): 22% | Percent of subjects with seroconversion to influenza 4 weeks after vaccination (B/Brisbane/60/2008; Intention to Treat Population, 20 mg, N = 48): 19% | Percent of subjects with seroconversion to influenza 4 weeks after vaccination (B/Brisbane/60/2008; Subjects with Baseline Titers <=40, 0.5 mg): 40* % | Percent of subjects with seroconversion to influenza 4 weeks after vaccination (B/Brisbane/60/2008; Subjects with Baseline Titers <=40, 5 mg): 33% | Percent of subjects with seroconversion to influenza 4 weeks after vaccination (B/Brisbane/60/2008; Subjects with Baseline Titers <=40, 20 mg): 28% | GMT ratio, B (B/Brisbane/60/2008; RAD001 5 mg weekly, N = 49): 2.2 | GMT ratio, B (B/Brisbane/60/2008; RAD001 20 mg weekly, N = 49): 2.1 | percentage of PD-1 positive CD4 and CD8 cells compared to placebo cohorts (PD-1; in vivo): lower in the RAD001 as compared to placebo cohorts | decrease in PD-1 positive CD4 T cells compared to placebo (PD-1; week 6, pooled cohort (n=84)): 30.2% | decrease in PD-1 positive CD8 T cells compared to placebo (PD-1; week 6, pooled cohort (n=84)): 37.4% | decrease in PD-1 positive CD4 T cells compared to placebo (PD-1; week 12, pooled cohort): 32.7% | decrease in PD-1 positive CD8 T cells compared to placebo (PD-1; week 12, pooled cohort): 41.4% | change in PD-1-positive CD8 T cells compared to placebo (PD-1; week 12, 0.5 mg/Day, 5 mg/Week and 20 mg/Week cohorts): −43.3-−38.5% | increase in seroconversion rate, H3N2 heterologous strain ([3]; 5 and 20 mg weekly dosing cohorts): statistically significant | Percentage of subjects who seroconvert to heterologous strain A/H3N2 A/Victoria/361/11 ([3]; RAD001 5 mg weekly): 39%* | Percentage of subjects who seroconvert to heterologous strain A/H3N2 A/Victoria/361/11 ([3]; RAD001 20 mg weekly): 40% * | H3N2 seroconversion rate, heterologous strain ([3]; pooled RAD001 cohorts, p=0.007 vs placebo): 39% | post-vaccination anti-influenza IgM and IgG levels [4]: No significant difference; also recorded: did not differ | average trough level ([5]; 0.5 mg daily): 0.9 ng/mL | average trough level ([5]; 5 mg weekly): below detection limits | average trough level ([5]; 20 mg weekly): 0.7 ng/mL | trough level of study regimens relative to approved regimens ([5]; in vivo): 3-20 fold lower | primary endpoint (≥1.2-fold GMT increase relative to placebo in 2 of 3 strains) ([6]; 0.5 mg daily or 5 mg weekly): met the GMT primary endpoint | primary endpoint (≥1.2-fold GMT increase relative to placebo in 2 of 3 strains) ([6]; 20 mg weekly): but not higher dose (20 mg weekly) cohort met the primary endpoint | increase in titers in subjects with low baseline influenza titers (≤1:40) ([6]; compared with the ITT population): greater RAD001-associated increase in titers | RAD001 concentration versus increase in titer ([6]; concentration 1 hour post dose after 4 weeks): inverse exposure/response relationship
